Tests used:
[1] = test system: OT-I CD8^+CD45.1^+ T-lymphocytes; assay: In vivo memory recall experiment (adoptive transfer, vaccination); parameters: species or system mouse; conditions: for formation of memory cells after in vitro treatment of CD8+ T-cells: 0.5 mM, 7 days with IL-2 (FIGS. 13, 16, 17); for in vivo recall in response to vaccination: cells pre-treated 7 days with 0.5 mM, 37 days after adoptive transfer
Procedure: FIGS. 13B and 13C show representative flow cytometry plots of (B) CD8^+CD45.1^+ (C) or Kb/SIINFEKL Pentamer^+CD45.1^+ T-lymphocytes, in the spleens of vaccinated litter mate CD45.2 mice, 37 days after adoptive transfer of SIINFEKL-activated OT-I CD8^+CD45.1^+ T-lymphocytes, expanded with 0.5 mM S-2HG-octyl ester, 0.5 mM R-2HG-octyl ester or vehicle in the presence of IL-2 for 7 days. FIGS. 13D-F show (13D) the number of recovered CD45.1^+CD8^+ T-lymphocytes per spleen and (13E) % CD45.1^+ cells of the total CD8^+ population in each spleen or (13F) number of recovered Kb/SIINFEKL Pentamer^+CD45.1^+ T-lymphocytes per spleen 7 days after vaccination (37 days after the CD8+ T-cells were transferred into the mice). n=6 mice per group and error bars denote the s.e.m.
Total splenocytes from OT-1 CD45.1^+ mice were activated with 1000 nM SIINFEKL peptide in the presence of IL-2 and vehicle, 0.5 mM S-2HG-octyl ester or 0.5 mM R-2HG-octyl ester for 7 days. 1 million CD45^+CD8^+ cells were then injected intravenously into C57/B6 wild type CD45.2^+ host mice. 30 days later, host mice were vaccinated i.p. with SIINFEKL-loaded dendritic cells. 7 days later, spleens were harvested from host mice and the presence of CD45.1^+CD8^+ and Kb/SIINFEKL Pentamer+cells was determined by flow cytometry. Absolute numbers of cells were determined with the use of counting beads (CountBright, Life Technologies). Dendritic cells were prepared from bone marrow extracted from wild type C57/B6 mice. Bone marrow derived cells were cultured in non-TC treated petri dishes in RPMI-1640 medium containing 2 mM glutamine, 10% FBS, 25 mM HEPES, pH 7.2, 1% penicillin-streptomycin, 55 μM […] supplemented 20 ng/ml mGM-CSF (R&D Systems). After 8 days of culture, dendritic cells were activated with 1 μg/ml LPS (Sigma) for 24 h. The maturation of dendritic cells was confirmed by flow cytometry using the following markers: MHC class II-APC, CD11b-AF488, CD11c-AF488 and CD86-PE/Cy7 (Biolegend). Mature dendritic cells were then loaded with 2 μM SIINFEKL peptide at 37° C. for 1 hour. After peptide loading, dendritic cells were detached with 3 mM EDTA in PBS for 5-10 min at 37° C. and washed with PBS. For vaccination, 1 million peptide-loaded dendritic cells were injected i.p. per mouse in 100 μl PBS.

HIF-1α = assay: Immunoblot of nuclear fractions for HIF-1α in treated CD8+ T-lymphocytes; assay type: cell-based, mouse; conditions: for abundance of HIF-1α protein at 7 days of continuous treatment: 0.5 mM
Procedure: FIG. 6A showns immunoblot analysis for HIF-1α, HDAC1, phospho-PDH E1α (S232) and total PDH-E1α in response to increasing concentrations of S-2HG-octyl ester or R-2HG-octyl ester, or 10 mM of the free acid forms of S-2HG or R-2HG for 16 hours. Cells were activated for 48 h with αCD3+αCD28 antibodies and then expanded for a further 4 days in the presence of IL-2 followed by treatment with the indicated concentration of S-2HG-octyl ester or R-2HG octyl ester, or 10 mM of the free acid forms of S-2HG or R-2HG for 16 hours. The arrow indicates HIF-1α protein.
The arrow indicates HIF-2a protein.
Nuclear and cytosolic fractions were prepared from cells with the NE-PER kit (Thermo Scientific) and separated by SDS-PAGE. Proteins were transferred to PVDF membranes and then blocked in 5% milk prepared in phosphate-buffered saline (PBS) plus 0.05% Tween 20. Membranes were then incubated with primary antibodies overnight at 4° C. and horseradish peroxidase (HRP)-conjugated secondary antibodies for 1 h the next day. The following primary antibodies were used at a dilution of 1:1000: HIF1α (Novus), HIF2α (Novus), PDH-E1α (Abcam), PDH-E1α pS232 (Calbiochem), LaminB1 (Abcam), HDAC1 (Abcam), β-tubulin (Abcam), 4E-BP1 (Cell Signalling), phospho-4E-BP1 (S65) (Cell Signalling), phospho-4E-BP1 (T37/T46) (Cell Signalling) S6K (Cell Signalling), phopho-S6K (T389) (Cell Signalling), phopho-S6K (S371) (Cell Signalling).

CD8^+ T-lymphocytes [2] = assay: qRT-PCR of differentiation, memory and pluripotency associated genes; assay type: cell-based, mouse; conditions: 0.5 mM; for transcript levels of Eomes, acute treatment: 24 h; for expression of pluripotency associated genes (Oct3/4, Sox2, Nanog, Klf4): with IL2; for Il2 and Ifng mRNA expression: 24 h or 7 days; for Eomes expression levels after continuous treatment: 7 days
Procedure: FIGS. 8E, 8F and 8G show expression of II2(8E), Ifng (8F), and Eomes (8G) mRNA in CD8^+ T-lymphocytes activated for 48 h with αCD3+αCD28 antibodies and then expanded for a further 2 days in the presence of IL-2. Cells were then treated for either 24 h or 7 days with or without 0.5 mM S-2HG-octyl ester or R-2HG-octyl ester. n≥4 mice per group.
Activated CD8^+ T-lymphocytes were treated with 0.5 mM of either S-2HG-octyl ester or R-2HG-octyl ester for 1 day or 7 days in the presence of IL2. The induction seen with R-2HG-octyl ester is weaker than with S-2HG-octyl ester. Each dot represents an individual donor mouse, n=4 mice. error bars denote the s.d.
RNA was isolated using the RNeasy kit (Qiagen). 1 μg of RNA was used for cDNA synthesis with the First-Strand Synthesis kit (Invitrogen). All samples were run in technical triplicates using a StepOnePlus system (Applied Biosystems) with SYBR green.

CD8^+ T-lymphocytes [3] = assay: Proliferation after activation (CFSE dilution, viable cell number); assay type: cell-based, mouse; conditions: 0.5 mM; for proliferation following activation: with IL-2
Procedure: Data are representative of 4 mice.
Cells were then treated with 0.5 mM S-2HG-octyl ester, 0.5 mM R-2HG-octyl ester or vehicle and counting was performed at indicated time points after initiation of treatment. n=8 mice per condition.
Cells were counted on an ADAM-MC automated cell counter (NanoEnTek) and viability was assessed by the exclusion of propidium iodide. Cell volume was determined using a Z2 Coulter counter (Beckman Coulter).

Row | SMILES | formation of memory cells after in vitro treatment of CD8+ T-cells [1] | in vivo recall in response to vaccination [1] | abundance of HIF-1α protein at 7 days of continuous treatment (HIF-1α) | HIF-1α stabilization (HIF-1α; increasing concentrations of octyl ester, 16 hours, activated CD8+ T-lymphocytes) | expression of memory associated transcripts (including Ccr7) (CD8^+ T-lymphocytes [2]) | transcript levels of Eomes, acute treatment (CD8^+ T-lymphocytes [2]) | expression of pluripotency associated genes (Oct3/4, Sox2, Nanog, Klf4) (CD8^+ T-lymphocytes [2]; 1 day or 7 days) | Il2 and Ifng mRNA expression (CD8^+ T-lymphocytes [2]) | Eomes expression levels after continuous treatment (CD8^+ T-lymphocytes [2]) | proliferation following activation (CD8^+ T-lymphocytes [3]) | induction of pluripotency associated genes compared with S-2HG-octyl ester (CD8^+ T-lymphocytes [2]; 1 day or 7 days) | restriction in proliferation compared with S-2HG-octyl ester (CD8^+ T-lymphocytes [3])
1 | CCCCCCCCOC(=O)[C@@H](O)CCC(=O)O [S-2HG-octyl ester, S-2HG octyl ester] | induces the formation | enhanced in vivo recall | increase in abundance is seen | stabilized | increased | represses | induces the expression | mediated at the transcriptional level | higher expression levels | decreasing proliferation | – | –
2 | CCCCCCCCOC(=O)[C@H](O)CCC(=O)O [R-2HG-octyl ester] | induces the formation | enhanced in vivo recall | increase in abundance is seen | – | increased | represses | induces the expression | mediated at the transcriptional level | higher expression levels | decreasing proliferation | weaker | less pronounced
